Data as given in US5684013A, “Tricyclic compounds useful for inhibition of g-protein function and for treatment of proliferative diseases” (Schering Corporation, priority 1995, dated 1997).
Where “and” joins values, the source holds several entries; their conditions need not be identical. Identical values can stand only once.

Biological target: T1, farnesyl protein transferase (FPT) (Rattus norvegicus, UniProt Q02293+Q04631)
T1 construct: were partially purified from rat brain by ammonium sulfate fractionation; from tissue; host or cells: rat brain
Assay: In vitro enzyme assay: inhibition of farnesyl protein transferase (FPT), Ras-CVLS farnesylation
Type: biochemical
Settings: 14 μM; read-out: FPT inhibition (percent)
Text: 1. In vitro enzyme assays: Inhibition of farnesyl protein transferase and geranylgeranyl protein transferase.
Both farnesyl protein transferase (FPT) and geranylgeranyl protein transferase (GGPT) I were partially purified from rat brain by ammonium sulfate fractionation followed by Q-Sepharose (Pharmacia, Inc.) anion exchange chromatography essentially as described by Yokoyama et al (Yokoyama, K., et al., (1991), A protein geranylgeranyltransferase from bovine brain: Implications for protein prenylation specificity, Proc. Natl. Acad. Sci USA 88: 5302-5306, the disclosure of which is incorporated herein by reference thereto). Human farnesyl protein transferase was also expressed in E. coli, using cDNA clones encoding both the a and b subunits. The methods used were similar to those published (Omer, C. et al., (1993), Characterization of recombinant human farnesyl protein transferase: Cloning, expression, farnesyl diphosphate binding, and functional homology with yeast prenyl-protein transferases, Biochemistry 32:5167-5176). Human farnesyl protein transferase was partially-purified from the soluble protein fraction of E. coli as described above. the tricyclic farnesyl protein transferase inhibitors disclosed herein inhibited both human and rat enzyme with similar potencies. Two forms of val^12 -Ha-Ras protein were prepared as substrates for these enzymes, differing in their carboxy terminal sequence. One form terminated in cysteine-valine-leucine-serine (Ras-CVLS) the other in cystein-valine-leucine-leucine (Ras-CVLL). Ras-CVLS is a substrate for the farnesyl protein transferase while Ras-CVLL is a substrate for geranylgeranyl protein transferase I. The cDNAs encoding these proteins were constructed so that the proteins contain an amino-terminal extension of 6 histidine residues. Both proteins were expressed in Escherichia coli and purified using metal chelate affinity chromatography. The radiolabelled isoprenyl pyrophosphate substrates, [^3 H]farnesyl pyrophosphate and [^3 H]geranylgeranyl pyrophosphate, were purchased from DuPont/New England Nuclear.
Several methods for measuring farnesyl protein transferase activity have been described (Reiss et al 1990, Cell 62: 81; Schaber et al 1990, J. Biol. Chem. 265: 14701; Manne et al 1990, PNAS 87: 7541; and Barbacid & Manne 1993, U.S. Pat. No. 5,185,248). The activity was assayed by measuring the transfer of [^3 H]farnesyl from [^3 H]farnesyl pyrophosphate to Ras-CVLS using conditions similar to those described by Reiss et al. 1990 (Cell 62: 81) The reaction mixture contained 40 mM Hepes, pH 7.5; 20 mM magnesium chloride; 5 mM dithiothreitol; 0.25 μM [^3 H]farnesyl pyrophosphate; […] Q-Sepharose-purified farnesyl protein transferase; the indicated concentration of tricyclic compound or dimethylsulfoxide (DMSO) vehicle control (5% DMSO final); and […] Ras-CVLS in a total volume of […]. The reaction was allowed to proceed for 30 minutes at room temperature and then stopped with 0.5 ml of 4% sodium dodecyl sulfate (SDS) followed by 0.5 ml of cold 30% trichloracetic acid (TCA). Samples were allowed to sit on ice for 45 minutes and precipitated Ras protein was then collected on GF/C filter paper mats using a Brandel cell harvester. Filter mats were washed once with 6% TCA, 2% SDS and radioactivity was measured in a Wallac 1204 Betaplate BS liquid scintillation counter. Percent inhibition was calculated relative to the DMSO vehicle control.

SMILES | inhibition at 14 µM [%]
O=C(Cc1ccncc1)N1CC/C(=C2/c3ccc(Cl)cc3CCc3cccnc32)C1 [Compound E-3A] | 11
O=C(Cc1ccncc1)N1CC/C(=C2\c3ccc(Cl)cc3CCc3cccnc32)C1 [Compound E-3M] | 37

Same assay, conditions: 15 μM; read-out: FPT inhibition (percent)

SMILES | inhibition at 15 µM [%]
CS(=O)(=O)N1CCC/C(=C2\c3ccc(Cl)cc3CCc3cccnc32)C1 [Compound E-2M] | 15

Same assay, conditions: 42 μM; read-out: FPT inhibition (percent)

SMILES | inhibition at 42 µM [%]
COc1ccc(S(=O)(=O)N2CCC/C(=C3\c4ccc(Cl)cc4CCc4cccnc43)C2)cc1 [Compound E-2G] | 33

Same assay, conditions: 50 μM; read-out: FPT inhibition (percent)

SMILES | inhibition at 50 µM [%]
O=C(c1ccco1)N1CC/C(=C2/c3ccc(Cl)cc3CCc3cccnc32)C1 [Compound E-3B] | 33

Same assay, conditions: Table 2

SMILES | FPT IC50
O=C(c1ccccc1)N1CCC/C(=C2\c3ccc(Cl)cc3CCc3cccnc32)C1 [Compound E-7] | inactive

Same assay, conditions: Table 2; read-out: FPT IC50

SMILES | IC50
O=S(=O)(c1cccs1)N1CC/C(=C2\c3ccccc3CCc3cccnc32)C1 [Compound E-1B] | 3.3 µM
O=S(=O)(c1cccs1)N1CCC/C(=C2\c3ccc(Cl)cc3CCc3cc(Br)cnc32)C1 [Compound E-1D] | 0.84 µM
O=S(=O)(c1cccs1)N1CCC/C(=C2/c3ccc(Cl)cc3CCc3cccnc32)C1 [Compound E-1J] | 4.8 µM
O=C(NCc1ccc(S(=O)(=O)N2CCC/C(=C3/c4ccc(Cl)cc4CCc4cccnc43)C2)s1)c1ccccc1 [Compound E-1K] | > 34 µM
O=S(=O)(c1cccs1)N1CC/C(=C2\c3ccc(Cl)cc3CCc3cccnc32)C1 [Compound E-1] | < 0.45 µM and 0.52 µM
O=S(=O)(c1ccccc1)N1CC/C(=C2\c3ccccc3CCc3cccnc32)C1 [Compound E-2C] | 2.8 µM
O=S(=O)(c1ccccc1)N1CCC/C(=C2\c3ccc(Cl)cc3CCc3cc(Br)cnc32)C1 [Compound E-2D] | 0.58 µM
O=S(=O)(c1ccc(F)cc1)N1CCC/C(=C2\c3ccc(Cl)cc3CCc3cccnc32)C1 [Compound E-2H] | 1.34 µM
CC(=O)Nc1ccc(S(=O)(=O)N2CCC/C(=C3\c4ccc(Cl)cc4CCc4cccnc43)C2)cc1 [Compound E-2J] | > 39.4 µM
Cc1ccc(S(=O)(=O)N2CCC/C(=C3\c4ccc(Cl)cc4CCc4cccnc43)C2)cc1 [Compound E-2K] | > 13 µM
Cc1cc(C)c(S(=O)(=O)N2CCC/C(=C3\c4ccc(Cl)cc4CCc4cccnc43)C2)c(C)c1 [Compound E-2L] | > 12 µM
O=S(=O)(Cc1ccccc1)N1CCC/C(=C2\c3ccc(Cl)cc3CCc3cccnc32)C1 [Compound E-2N] | > 13 µM
O=S(=O)(c1ccccc1)N1CCC/C(=C2/c3ccc(Cl)cc3CCc3cccnc32)C1 [Compound E-2P] | 3.3 µM
O=[N+]([O-])c1ccc(S(=O)(=O)N2CCC/C(=C3/c4ccc(Cl)cc4CCc4cccnc43)C2)cc1 [Compound E-2Q] | > 40 µM
COc1ccc(S(=O)(=O)N2CCC/C(=C3/c4ccc(Cl)cc4CCc4cccnc43)C2)cc1 [Compound E-2R] | > 42 µM
O=S(=O)(c1ccc(F)cc1)N1CCC/C(=C2/c3ccc(Cl)cc3CCc3cccnc32)C1 [Compound E-2S] | > 43 µM
CC(=O)Nc1ccc(S(=O)(=O)N2CCC/C(=C3/c4ccc(Cl)cc4CCc4cccnc43)C2)cc1 [Compound E-2T] | 33.5 µM
O=S(=O)(c1ccccc1)N1CCCC(C2c3ccc(Cl)cc3C=Cc3cccnc32)C1 (centres unmarked) [Compound E-2U] | 6.4 µM

SMILES | IC50
CS(=O)(=O)N1CCCC(C2c3ccc(Cl)cc3C=Cc3cccnc32)C1 (centres unmarked) [Compound E-2V] | 44 µM
O=C(Cc1cccnc1)N1CCCC(C2c3ccc(Cl)cc3CCc3cccnc32)C1 (centres unmarked) [Compound E-3C] | 8 µM
O=C(Cc1ccncc1)N1CCCC(C2c3ccc(Cl)cc3CCc3cccnc32)C1 (centres unmarked) [Compound E-3D] | > 13.9 µM
O=C(Cc1cccnc1)N1CCC/C(=C2\c3ccc(Cl)cc3CCc3cccnc32)C1 [Compound E-3E] | 7.8 µM
O=C(Cc1ccncc1)N1CCC/C(=C2\c3ccc(Cl)cc3CCc3cccnc32)C1 [Compound E-3F] | > 14 µM
O=C(CCc1ccccc1)N1CCC/C(=C2\c3ccc(Cl)cc3CCc3cccnc32)C1 [Compound E-3G] | > 45 µM
O=C(Cc1cccnc1)N1CCC/C(=C2/c3ccc(Cl)cc3CCc3cccnc32)C1 [Compound E-3J] | 5.1 µM
O=C(Cc1ccncc1)N1CCC/C(=C2/c3ccc(Cl)cc3CCc3cccnc32)C1 [Compound E-3K] | > 14 µM
O=C(CCc1ccccc1)N1CCC/C(=C2/c3ccc(Cl)cc3CCc3cccnc32)C1 [Compound E-3L] | > 45 µM
O=C(CSc1ccncc1)N1CC/C(=C2\c3ccc(Cl)cc3CCc3cccnc32)C1 [Compound E-3N] | 4.2 µM
O=C(CSc1ccncc1)N1CC/C(=C2/c3ccc(Cl)cc3CCc3cccnc32)C1 [Compound E-3] | 6.9 µM
O=S(=O)(c1cccnc1)N1CCCC(C2c3ccc(Cl)cc3C=Cc3cccnc32)C1 (centres unmarked) [Compound E-4A] | 7.5 µM
O=S(=O)(c1cccnc1)N1CCC/C(=C2/c3ccc(Cl)cc3CCc3cccnc32)C1 [Compound E-4B] | 8.8 µM
O=S(=O)(c1cccnc1)N1CCC/C(=C2\c3ccc(Cl)cc3CCc3cccnc32)C1 [Compound E-4] | 0.97 µM
O=C(Nc1ccccc1)N1CCC/C(=C2\c3ccc(Cl)cc3CCc3cccnc32)C1 [Compound E-5] | > 14 µM
O=C(Sc1ccccc1)N1CCC/C(=C2\c3ccc(Cl)cc3CCc3cccnc32)C1 [Compound E-6] | > 13 µM
O=C(c1cccnc1)N1CCC/C(=C2\c3ccc(Cl)cc3CCc3cccnc32)C1 [Compound E-7A] | > 14.4 µM
O=C(Cc1ccccc1)N1CCC/C(=C2\c3ccc(Cl)cc3CCc3cccnc32)C1 [Compound E-7B] | > 14 µM

Tested on: Normal human HEPM fibroblasts
Assay: Cell Mat Assay: inhibition of normal cell growth (cell mat)
Type: cell-based
Settings: Fibroblast, mIC50, normal cell monolayer
Method: (§1) Normal human HEPM fibroblasts were planted in 3.5 cm dishes at a density of 5×10^4 cells/dish in 2 ml growth medium, and incubated for 3-5 d to achieve confluence. Medium was aspirated from each dish and the indicator tumor cells, T24-BAG4 human bladder carcinoma cells expressing an activated H-ras gene, were planted on top of the fibroblast monolayer at a density of 2×10^3 cells/dish in 2 ml growth medium, and allowed to attach overnight. Compound-induced colony inhibition was assayed by addition of serial dilutions of compound directly to the growth medium 24 h after tumor cell planting, and incubating cells for an additional 14 d to allow colony formation. Assays were terminated by rinsing monolayers twice with phosphate-buffered saline (PBS), fixing the monolayers with a 1% glutaraldehyde solution in PBS, then visualizing tumor cells by staining with X-Gal (Price, J., et al., Lineage analysis in the vertebrate nervous system by retrovirus-mediated gene transfer, Proc. Natl. Acad. Sci. 84, 156-160(1987)). In the colony inhibition assay, compounds were evaluated on the basis of two IC50 values: the concentration of drug required to prevent the increase in tumor cell number by 50% (tIC50) and the concentration of drug required to reduce the density of cells comprising the cell mat by 50% (mIC50). Both IC50 values were obtained by determining the density of tumor cells and mat cells by visual inspection and enumeration of cells per colony and the number of colonies under the microscope. The therapeutic index of the compound was quantitatively expressed as the ratio of mIC50 /tIC50, with values greater than one indicative of tumor target specificity.

SMILES | IC50 [µM]
O=S(=O)(c1ccc(F)cc1)N1CCC/C(=C2\c3ccc(Cl)cc3CCc3cccnc32)C1 [Compound E-2H] | > 25

Tested on: T24-BAG4 human bladder carcinoma cells
Assay: Cell Mat Assay: inhibition of tumor cell growth
Type: cell-based
Settings: 336 h, tIC50, 14 d colony formation
Method: as §1

SMILES | IC50 [µM]
O=S(=O)(c1ccc(F)cc1)N1CCC/C(=C2\c3ccc(Cl)cc3CCc3cccnc32)C1 [Compound E-2H] | 12.5
